Tests used:
CREBBP = CREBBP (Homo sapiens (Human), UniProt Q92793); test: AlphaScreen in-vitro binding assay for CREBBP; conditions: 324 nM His-CREBBP (1081-1197), acetyl-histone H4 (AcK 5, 8, 12) peptide
How it was run: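 IC50 values were derived by non-linear regression of percent inhibition across 8 compound concentrations. Protein was His-tagged CREBBP bromodomain (1081-1197), peptide acetyl-histone H4 (AcK 5, 8, 12), in HEPES pH 7.5 buffer. Read-out was AlphaScreen with Ni-chelate acceptor and streptavidin donor beads, 35 min at 30° C then 60 min at RT.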

BRD4 = BRD4 (Homo sapiens (Human), UniProt O60885); test: TR-FRET in-vitro binding assay for BRD4; conditions: 45 nM His-Brd4(44-477), acetyl-histone H4 (AcK 5, 8, 12, 16) peptide
How it was run: (§1)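 Eight-point compound dilutions, delivered in 90% DMSO, were tested in a 13.55 μL final reaction. Reactions ran 35 minutes at 30° C before TR-FRET measurement.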

MV-4-11 = test: Cell growth inhibition assay (CellTiter-Glo), MV-4-11; type: cell-based, human; conditions: MV-4-11 cells, 4 days; for GI50: Homo sapiens, MV4-11, 96 h, half-maximal growth inhibition; for MV-4-11 TGI: total growth inhibition
How it was run: (§2)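 Proliferation and viability are quantified by CellTiter-Glo after four days of incubation with serially diluted compound (maximum 10 μM). Four-parameter curve fitting gives IC50 and TGI.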

THP-1 = test: Cell growth inhibition assay (CellTiter-Glo), THP-1; type: cell-based, human; conditions: THP-1 cells, 4 days; for GI50: Homo sapiens, 96 h, half-maximal growth inhibition; for THP-1 TGI: total growth inhibition
How it was run: as §2

BRD3 = BRD3 (Homo sapiens (Human), UniProt Q15059); test: TR-FRET in-vitro binding assay for BRD3; conditions: 45 nM His-Brd3(20-477), acetyl-histone H4 (AcK 5, 8, 12, 16) peptide
Chain of BRD3 (Q15059 20-477): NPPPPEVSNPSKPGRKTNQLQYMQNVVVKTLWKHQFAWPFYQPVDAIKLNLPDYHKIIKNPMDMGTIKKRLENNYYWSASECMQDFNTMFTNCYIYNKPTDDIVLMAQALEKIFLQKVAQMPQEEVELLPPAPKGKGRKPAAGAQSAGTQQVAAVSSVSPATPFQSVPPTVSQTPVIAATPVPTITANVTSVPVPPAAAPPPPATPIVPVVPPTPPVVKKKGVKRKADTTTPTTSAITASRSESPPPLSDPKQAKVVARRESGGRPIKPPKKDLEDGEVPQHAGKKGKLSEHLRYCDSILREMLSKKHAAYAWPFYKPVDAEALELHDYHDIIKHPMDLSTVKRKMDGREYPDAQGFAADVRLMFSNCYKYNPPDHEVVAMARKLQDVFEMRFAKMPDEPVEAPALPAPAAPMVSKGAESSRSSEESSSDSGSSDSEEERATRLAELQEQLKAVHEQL
How it was run: as §1

BRD2 = BRD2 (Homo sapiens (Human), UniProt P25440); test: TR-FRET in-vitro binding assay for BRD2; conditions: 45 nM His-Brd2(60-472), acetyl-histone H4 (AcK 5, 8, 12, 16) peptide
Chain of BRD2 (P25440 60-472): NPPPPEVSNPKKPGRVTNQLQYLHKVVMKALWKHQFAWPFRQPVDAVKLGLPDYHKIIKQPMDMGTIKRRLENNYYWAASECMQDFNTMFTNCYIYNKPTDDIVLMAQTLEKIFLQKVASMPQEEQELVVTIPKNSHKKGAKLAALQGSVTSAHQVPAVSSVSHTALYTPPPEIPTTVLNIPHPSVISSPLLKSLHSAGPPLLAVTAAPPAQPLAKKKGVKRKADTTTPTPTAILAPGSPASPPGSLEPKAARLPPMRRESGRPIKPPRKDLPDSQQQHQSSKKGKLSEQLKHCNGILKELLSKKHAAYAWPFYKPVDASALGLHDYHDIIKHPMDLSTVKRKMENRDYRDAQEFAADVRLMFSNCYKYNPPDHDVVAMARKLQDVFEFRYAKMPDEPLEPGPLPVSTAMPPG
Method: TR-FRET In-Vitro Binding Assays for BRD2, BRD3, and BRD4: All assays were performed in 384-well microtiter plates. […] Liquid handling and incubation steps were done on an Innovadyne Nanodrop Express equipped with a robotic arm (Thermo CatX, Perkin Elmer/Caliper Twister II) and an incubator (Liconic STX40, Thermo Cytomat 2C450). The assay plates were prepared by addition of 50 nl per well of compound solution in 90% DMSO HummingBird nanodispenser (Zinsser Analytic). […] Reactions were incubated at 30° C. for 35 minutes. […] After 35 minutes incubation at 30° C., plates were measured in a Perkin Elmer EnVision multilabel reader. […] The stock solutions were stored at […] if not used immediately. For the test procedure the vials were defrosted and identified by a scanner whereby a working sheet was generated that guided the subsequent working steps. Compound dilutions were made in 96 well plates. This format enabled the assay of maximally […] at 8 concentrations (single points) including 4 reference compounds, if desired (known BET inhibitors from the prior art, for this and other assays of the type disclosed herein). The dilution protocol included the production of “pre-dilution plates”, “master plates” and “assay plates”. Polypropylene 96-well plates were used as pre-dilution plates. […] All dilution steps were done on a HamiltonSTAR robot. […] Identical “assay plates” were then prepared by pipetting 50 nL each of compound dilutions of the “master plates” into 384-well “assay plates” by means of a HummingBird 384-channel dispenser. These plates were used directly for the assay which was performed in a total volume of 13.55 μL.

K-562 = test: Cell growth inhibition assay (CellTiter-Glo), K-562; type: cell-based, human; conditions: K-562 cells, 4 days; for GI50: Homo sapiens, K562, 96 h, half-maximal growth inhibition; for K-562 TGI: total growth inhibition
How it was run: as §2

Chain of CREBBP (Q92793 1081-1197): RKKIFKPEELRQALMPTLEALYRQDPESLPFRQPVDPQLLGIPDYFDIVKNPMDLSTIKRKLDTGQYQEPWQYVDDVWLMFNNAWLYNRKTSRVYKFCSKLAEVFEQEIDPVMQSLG

Compound	IC50 (CREBBP)	IC50 (BRD4)	GI50 (MV-4-11)	MV-4-11 TGI (MV-4-11)	GI50 (THP-1)	THP-1 TGI (THP-1)	IC50 (BRD3)	IC50 (BRD2)	GI50 (K-562)	K-562 TGI (K-562)
COCCn1cc(C)c2c1C(c1ccc(Cl)cc1)N(c1cc(C)c3nnc(C)n3c1)C2=O (stereo not drawn) [Example 13, 6-(4-chlorophenyl)-5-(3,8-dimethyl-[1,2,4]triazolo[4,3-a]pyridin-6-yl)-1-(2-methoxyethyl)-3-methyl-5,6-dihydropyrrolo[3,4-b]pyrrol-4(1H)-one]	13700 nM	62 nM	12.7 nM	24.85 nM	17.6 nM	38.9 nM	67 nM	71 nM	73.6 nM	>10000 nM
Cc1cn(CCO)c2c1C(=O)N(c1cc(C)c3nnc(C)n3c1)C2c1ccc(Cl)cc1 (stereo not drawn) [Example 14, 6-(4-chlorophenyl)-5-(3,8-dimethyl-[1,2,4]triazolo[4,3-a]pyridin-6-yl)-1-(2-hydroxyethyl)-3-methyl-5,6-dihydropyrrolo[3,4-b]pyrrol-4(1H)-one]	6600 nM	22 nM	14.6 nM	30.85 nM	35.6 nM	81.55 nM	25 nM	23 nM	115 nM	>10000 nM
Cc1cc(N2C(=O)c3c(C4CC4)cn(C4CN(C)C4)c3C2c2ccc(Cl)cc2)cn2c(C)nnc12 (stereo not drawn) [Example 16, 6-(4-chlorophenyl)-3-cyclopropyl-5-(3,8-dimethyl-[1,2,4]triazolo[4,3-a]pyridin-6-yl)-1-(1-methylazetidin-3-yl)-5,6-dihydropyrrolo[3,4-b]pyrrol-4(1H)-one]	5000 nM	14 nM	3.81 nM	12.4 nM	11.7 nM	35.5 nM	19 nM	14 nM	45.2 nM	>10000 nM
CC(=O)N1CC(n2cc(C3CC3)c3c2C(c2ccc(Cl)cc2)N(c2cc(C)c4nnc(C)n4c2)C3=O)C1 (stereo not drawn) [Example 17, 1-(1-acetylazetidin-3-yl)-6-(4-chlorophenyl)-3-cyclopropyl-5-(3,8-dimethyl-[1,2,4]triazolo[4,3-a]pyridin-6-yl)-5,6-dihydropyrrolo[3,4-b]pyrrol-4(1H)-one]	4100 nM	< 11 nM	11.1 nM	34.85 nM	43.3 nM	168 nM	< 11 nM	< 11 nM	230 nM	>10000 nM
Cc1cn(C2CN(C)C2)c2c1C(=O)N(c1cc(C)c3nnn(C)c3n1)C2c1ccc(Cl)cc1 (stereo not drawn) [Example 20, 6-(4-chlorophenyl)-5-(3,7-dimethyl-3H-[1,2,3]triazolo[4,5-b]pyridin-5-yl)-3-methyl-1-(1-methylazetidin-3-yl)-5,6-dihydropyrrolo[3,4-b]pyrrol-4(1H)-one]	> 37000 nM	16 nM	7.89 nM	21.25 nM	12.9 nM	38 nM	20 nM	23 nM	63.4 nM	>10000 nM
Cc1cc(N2C(=O)c3cc[nH]c3C2c2ccc(Cl)cc2)cn2c(C)nnc12 (stereo not drawn) [Example 21, 6-(4-chlorophenyl)-5-(3,8-dimethyl-[1,2,4]triazolo[4,3-a]pyridin-6-yl)-5,6-dihydropyrrolo[3,4-b]pyrrol-4(1H)-one]	5100 nM	47 nM	45.2 nM	81.05 nM	63.3 nM	178 nM	53 nM	82 nM	246 nM	>10000 nM
CCOC(=O)n1ccc2c1C(c1ccc(Cl)cc1)N(c1cc(C)c3nnc(C)n3c1)C2=O (stereo not drawn) [Example 22, Ethyl 6-(4-chlorophenyl)-5-(3,8-dimethyl-[1,2,4]triazolo[4,3-a]pyridin-6-yl)-4-oxo-5,6-dihydropyrrolo[3,4-b]pyrrole-1(4H)-carboxylate]	12500 nM	25 nM	46.8 nM	86.15 nM	60.1 nM	130 nM	26 nM	38 nM	226 nM	>10000 nM
CNC(=O)n1ccc2c1C(c1ccc(Cl)cc1)N(c1cc(C)c3nnc(C)n3c1)C2=O (stereo not drawn) [Example 23, 6-(4-chlorophenyl)-5-(3,8-dimethyl-[1,2,4]triazolo[4,3-a]pyridin-6-yl)-N-methyl-4-oxo-5,6-dihydropyrrolo[3,4-b]pyrrole-1(4H)-carboxamide]	4200 nM	52 nM	29 nM	54.7 nM	39.2 nM	101.7 nM	39 nM	85 nM	206 nM	>10000 nM
Cc1cc(N2C(=O)c3ccn(C(=O)N(C)C)c3C2c2ccc(Cl)cc2)cn2c(C)nnc12 (stereo not drawn) [Example 24, 6-(4-chlorophenyl)-5-(3,8-dimethyl-[1,2,4]triazolo[4,3-a]pyridin-6-yl)-N,N-dimethyl-4-oxo-5,6-dihydropyrrolo[3,4-b]pyrrole-1(4H)-carboxamide]	13300 nM	80 nM	92.8 nM	152 nM	96.4 nM	267.5 nM	87 nM	220 nM	527 nM	>10000 nM
Cc1cc(N2C(=O)c3cc(-c4cccn(C)c4=O)[nH]c3C2c2ccc(Cl)cc2)cn2c(C)nnc12 (stereo not drawn) [Example 25, 6-(4-chlorophenyl)-5-(3,8-dimethyl-[1,2,4]triazolo[4,3-a]pyridin-6-yl)-2-(1-methyl-2-oxo-1,2-dihydropyridin-3-yl)-5,6-dihydropyrrolo[3,4-b]pyrrol-4(1H)-one]	4400 nM	17 nM	36.8 nM	58.15 nM	39.2 nM	94.9 nM	23 nM	38 nM	156 nM	>10000 nM
Cc1cc(N2C(=O)c3cc(-c4cccnc4O)[nH]c3C2c2ccc(Cl)cc2)cn2c(C)nnc12 (stereo not drawn) [Example 26, 6-(4-chlorophenyl)-5-(3,8-dimethyl-[1,2,4]triazolo[4,3-a]pyridin-6-yl)-2-(2-hydroxypyridin-3-yl)-5,6-dihydropyrrolo[3,4-b]pyrrol-4(1H)-one]	4000 nM	60 nM	70 nM	118.5 nM	136 nM	340 nM	52 nM	78 nM	839 nM	>10000 nM
Cc1cn(C)c2c1C(=O)N(c1cc(C)c3nnn(C)c3c1)C2c1ccc(Cl)cc1 (stereo not drawn) [Example 28, 6-(4-chlorophenyl)-5-(1,4-dimethyl-1H-benzo[d][1,2,3]triazol-6-yl)-1,3-dimethyl-5,6-dihydropyrrolo[3,4-b]pyrrol-4(1H)-one]	1900 nM	16 nM	12.8 nM	26.35 nM	19.2 nM	38.15 nM	21 nM	20 nM	55.6 nM	>10000 nM
